Test [1] concerns the target cyclase (RINm5f membranes). In words: Cyclase activation study (cAMP by SPA immunoassay, membranes). In kind it is biochemical. The note with it: cAMP in membranes, 20 minutes incubation at 37° C. The procedure:
GLP-1(7-36) [NH2] was purchased from Bachem (Torrance, Calif.). All other peptides were prepared using synthesis methods such as those described therein. All chemicals were of the highest commercial grade. The cAMP SPA immunoassay was purchased from Amersham. The radioligands were purchased from New England Nuclear (Boston, Mass.). […] Cells were grown to confluence then harvested and homogenized using on a Polytron homogenizer. Cell homogenates were stored frozen at −70° C. until used. […] Membranes and peptides were combined in […] of assay buffer in 96 well filter-bottom plates (Millipore Corp., Bedford, Mass.). […] Supernatant cAMP contents were quantitated by SPA immunoassay. […] The biological activity of a particular sample was expressed as an EC50 value, calculated as described above.

A further test relates to C57BLKS/J-m-db mice. Description: Determination of blood glucose levels in db/db mice. It is filed as in vivo. The note with it: 1 μg subcutaneous, plasma glucose one hour after injection vs baseline.

Take `CC[C@H](C)[C@H](NC(=O)[C@H](Cc1ccccc1)NC(=O)[C@H](CC(C)C)NC(=O)[C@H](CCCNC(=N)N)NC(=O)[C@@H](NC(=O)[C@H](C)NC(=O)[C@H](CCC(=O)O)NC(=O)[C@H](CCC(=O)O)NC(=O)[C@H](CCC(=O)O)NC(=O)[C@H](CC(C)C)NC(=O)[C@H](CCC(N)=O)NC(=O)[C@H](CCCCN)NC(=O)[C@H](CO)NC(=O)[C@H](CC(C)C)NC(=O)[C@H](CC(=O)O)NC(=O)[C@H](CO)NC(=O)[C@@H](NC(=O)[C@H](Cc1ccccc1)NC(=O)[C@@H](NC(=O)CNC(=O)[C@H](CCC(=O)O)NC(=O)[C@H](C)NC(=O)[C@@H](N)Cc1c[nH]cn1)[C@@H](C)O)[C@@H](C)O)C(C)C)C(=O)N[C@@H](CCC(=O)O)C(=O)N[C@@H](Cc1ccccc1)C(=O)N[C@@H](CC(C)C)C(=O)N[C@@H](CCCCN)C(=O)N[C@@H](CC(N)=O)C(N)=O` [Compound 4]: in test [1], it took 0.22 nM to reach a half-maximal effect (EC50). Besides, in the test on C57BLKS/J-m-db mice, the “% drop in glucose” value was found to be 27%.

As for `CC[C@H](C)[C@H](NC(=O)[C@H](Cc1ccccc1)NC(=O)[C@H](CC(C)C)NC(=O)[C@H](CCCNC(=N)N)NC(=O)[C@@H](NC(=O)[C@H](C)NC(=O)[C@H](CCC(=O)O)NC(=O)[C@H](CCC(=O)O)NC(=O)[C@H](CCC(=O)O)NC(=O)[C@H](CC(C)C)NC(=O)[C@H](CCC(N)=O)NC(=O)[C@H](CCCCN)NC(=O)[C@H](CO)NC(=O)[C@H](CC(C)C)NC(=O)[C@H](CC(=O)O)NC(=O)[C@H](CO)NC(=O)[C@@H](NC(=O)[C@H](Cc1ccccc1)NC(=O)[C@H](C)NC(=O)CNC(=O)[C@H](CCC(=O)O)NC(=O)CNC(=O)[C@@H](N)Cc1c[nH]cn1)[C@@H](C)O)C(C)C)C(=O)N[C@@H](CCC(=O)O)C(=O)N[C@@H](Cc1ccccc1)C(=O)N[C@@H](CC(C)C)C(=O)N[C@@H](CCCCN)C(=O)N[C@@H](CC(N)=O)C(N)=O` [Compound 5], a half-maximal response in test [1] (EC50) required 9.85 nM. In addition, in the test with C57BLKS/J-m-db mice, the “% drop in glucose” value is listed as 47%.

Turning to `CC[C@H](C)[C@H](NC(=O)[C@H](Cc1ccccc1)NC(=O)[C@H](CC(C)C)NC(=O)[C@H](CCCNC(=N)N)NC(=O)[C@@H](NC(=O)[C@H](C)NC(=O)[C@H](CCC(=O)O)NC(=O)[C@H](CCC(=O)O)NC(=O)[C@H](CCC(=O)O)NC(=O)[C@H](CC(C)C)NC(=O)[C@H](CCC(N)=O)NC(=O)[C@H](CCCCN)NC(=O)[C@H](CO)NC(=O)[C@H](CC(C)C)NC(=O)[C@H](CC(=O)O)NC(=O)[C@H](CO)NC(=O)[C@@H](NC(=O)[C@H](C)NC(=O)[C@@H](NC(=O)CNC(=O)[C@H](CCC(=O)O)NC(=O)CNC(=O)[C@@H](N)Cc1c[nH]cn1)[C@@H](C)O)[C@@H](C)O)C(C)C)C(=O)N[C@@H](CCC(=O)O)C(=O)N[C@@H](Cc1ccccc1)C(=O)N[C@@H](CC(C)C)C(=O)N[C@@H](CCCCN)C(=O)N[C@@H](CC(N)=O)C(N)=O` [Compound 6], the EC50 in test [1] turned out to be 79.4 nM. Besides, the “% drop in glucose” value in the test on C57BLKS/J-m-db mice came to 40%.

Consider `CC[C@H](C)[C@H](NC(=O)[C@H](Cc1ccccc1)NC(=O)[C@H](CC(C)C)NC(=O)[C@H](CCCNC(=N)N)NC(=O)[C@@H](NC(=O)[C@H](C)NC(=O)[C@H](CCC(=O)O)NC(=O)[C@H](CCC(=O)O)NC(=O)[C@H](CCC(=O)O)NC(=O)[C@H](CC(C)C)NC(=O)[C@H](CCC(N)=O)NC(=O)[C@H](CCCCN)NC(=O)[C@H](CO)NC(=O)[C@H](CC(C)C)NC(=O)[C@H](CC(=O)O)NC(=O)[C@H](C)NC(=O)[C@@H](NC(=O)[C@H](Cc1ccccc1)NC(=O)[C@@H](NC(=O)CNC(=O)[C@H](CCC(=O)O)NC(=O)CNC(=O)[C@@H](N)Cc1c[nH]cn1)[C@@H](C)O)[C@@H](C)O)C(C)C)C(=O)N[C@@H](CCC(=O)O)C(=O)N[C@@H](Cc1ccccc1)C(=O)N[C@@H](CC(C)C)C(=O)N[C@@H](CCCCN)C(=O)N[C@@H](CC(N)=O)C(N)=O` [Compound 7], for which the EC50 in test [1] is 63.6 nM. Also, in the test on C57BLKS/J-m-db mice, the “% drop in glucose” value stood at 31%.

Regarding `CC[C@H](C)[C@H](NC(=O)[C@H](Cc1ccccc1)NC(=O)[C@H](CC(C)C)NC(=O)[C@H](CCCNC(=N)N)NC(=O)[C@@H](NC(=O)[C@H](C)NC(=O)[C@H](CCC(=O)O)NC(=O)[C@H](CCC(=O)O)NC(=O)[C@H](CCC(=O)O)NC(=O)[C@H](CC(C)C)NC(=O)[C@H](CCC(N)=O)NC(=O)[C@H](CCCCN)NC(=O)[C@H](CO)NC(=O)[C@H](C)NC(=O)[C@H](CC(=O)O)NC(=O)[C@H](CO)NC(=O)[C@@H](NC(=O)[C@H](Cc1ccccc1)NC(=O)[C@@H](NC(=O)CNC(=O)[C@H](CCC(=O)O)NC(=O)CNC(=O)[C@@H](N)Cc1c[nH]cn1)[C@@H](C)O)[C@@H](C)O)C(C)C)C(=O)N[C@@H](CCC(=O)O)C(=O)N[C@@H](Cc1ccccc1)C(=O)N[C@@H](CC(C)C)C(=O)N[C@@H](CCCCN)C(=O)N[C@@H](CC(N)=O)C(N)=O` [Compound 8], in test [1], the 50% effective concentration (EC50) is 6.8 nM. The “% drop in glucose” value in the test on C57BLKS/J-m-db mice was 44%.

The compound `CC[C@H](C)[C@H](NC(=O)[C@H](Cc1ccccc1)NC(=O)[C@H](CC(C)C)NC(=O)[C@H](CCCNC(=N)N)NC(=O)[C@@H](NC(=O)[C@H](C)NC(=O)[C@H](CCC(=O)O)NC(=O)[C@H](CCC(=O)O)NC(=O)[C@H](CCC(=O)O)NC(=O)[C@H](CC(C)C)NC(=O)[C@H](CCC(N)=O)NC(=O)[C@H](CCCCN)NC(=O)[C@H](C)NC(=O)[C@H](CC(C)C)NC(=O)[C@H](CC(=O)O)NC(=O)[C@H](CO)NC(=O)[C@@H](NC(=O)[C@H](Cc1ccccc1)NC(=O)[C@@H](NC(=O)CNC(=O)[C@H](CCC(=O)O)NC(=O)CNC(=O)[C@@H](N)Cc1c[nH]cn1)[C@@H](C)O)[C@@H](C)O)C(C)C)C(=O)N[C@@H](CCC(=O)O)C(=O)N[C@@H](Cc1ccccc1)C(=O)N[C@@H](CC(C)C)C(=O)N[C@@H](CCCCN)C(=O)N[C@@H](CC(N)=O)C(N)=O` [Compound 9] gave an EC50 in test [1] of 1.68 nM. For the same compound, the “% drop in glucose” value with C57BLKS/J-m-db mice was 41%.

Regarding `CC[C@H](C)[C@H](NC(=O)[C@H](Cc1ccccc1)NC(=O)[C@H](CC(C)C)NC(=O)[C@H](CCCNC(=N)N)NC(=O)[C@@H](NC(=O)[C@H](C)NC(=O)[C@H](CCC(=O)O)NC(=O)[C@H](CCC(=O)O)NC(=O)[C@H](CCC(=O)O)NC(=O)[C@H](CC(C)C)NC(=O)[C@H](C)NC(=O)[C@H](CCCCN)NC(=O)[C@H](CO)NC(=O)[C@H](CC(C)C)NC(=O)[C@H](CC(=O)O)NC(=O)[C@H](CO)NC(=O)[C@@H](NC(=O)[C@H](Cc1ccccc1)NC(=O)[C@@H](NC(=O)CNC(=O)[C@H](CCC(=O)O)NC(=O)CNC(=O)[C@@H](N)Cc1c[nH]cn1)[C@@H](C)O)[C@@H](C)O)C(C)C)C(=O)N[C@@H](CCC(=O)O)C(=O)N[C@@H](Cc1ccccc1)C(=O)N[C@@H](CC(C)C)C(=O)N[C@@H](CCCCN)C(=O)N[C@@H](CC(N)=O)C(N)=O` [Compound 11], the EC50 in test [1] came out at 0.48 nM. In addition, the “% drop in glucose” value with C57BLKS/J-m-db mice is 40%.

Consider `CC[C@H](C)[C@H](NC(=O)[C@H](Cc1ccccc1)NC(=O)[C@H](CC(C)C)NC(=O)[C@H](CCCNC(=N)N)NC(=O)[C@@H](NC(=O)[C@H](C)NC(=O)[C@H](CCC(=O)O)NC(=O)[C@H](CCC(=O)O)NC(=O)[C@H](CCC(=O)O)NC(=O)[C@H](C)NC(=O)[C@H](CCC(N)=O)NC(=O)[C@H](CCCCN)NC(=O)[C@H](CO)NC(=O)[C@H](CC(C)C)NC(=O)[C@H](CC(=O)O)NC(=O)[C@H](CO)NC(=O)[C@@H](NC(=O)[C@H](Cc1ccccc1)NC(=O)[C@@H](NC(=O)CNC(=O)[C@H](CCC(=O)O)NC(=O)CNC(=O)[C@@H](N)Cc1c[nH]cn1)[C@@H](C)O)[C@@H](C)O)C(C)C)C(=O)N[C@@H](CCC(=O)O)C(=O)N[C@@H](Cc1ccccc1)C(=O)N[C@@H](CC(C)C)C(=O)N[C@@H](CCCCN)C(=O)N[C@@H](CC(N)=O)C(N)=O` [Compound 12], for which, in test [1], the half-maximal effective concentration (EC50) amounted to 15.6 nM. Moreover, in the test with C57BLKS/J-m-db mice, the “% drop in glucose” value is 53%.

In turn, `CC[C@H](C)[C@H](NC(=O)[C@H](Cc1ccccc1)NC(=O)[C@H](CC(C)C)NC(=O)[C@H](CCCNC(=N)N)NC(=O)[C@@H](NC(=O)[C@H](C)NC(=O)[C@H](CCC(=O)O)NC(=O)[C@H](C)NC(=O)[C@H](CCC(=O)O)NC(=O)[C@H](CC(C)C)NC(=O)[C@H](CCC(N)=O)NC(=O)[C@H](CCCCN)NC(=O)[C@H](CO)NC(=O)[C@H](CC(C)C)NC(=O)[C@H](CC(=O)O)NC(=O)[C@H](CO)NC(=O)[C@@H](NC(=O)[C@H](Cc1ccccc1)NC(=O)[C@@H](NC(=O)CNC(=O)[C@H](CCC(=O)O)NC(=O)CNC(=O)[C@@H](N)Cc1c[nH]cn1)[C@@H](C)O)[C@@H](C)O)C(C)C)C(=O)N[C@@H](CCC(=O)O)C(=O)N[C@@H](Cc1ccccc1)C(=O)N[C@@H](CC(C)C)C(=O)N[C@@H](CCCCN)C(=O)N[C@@H](CC(N)=O)C(N)=O` [Compound 14] showed an EC50 in test [1] of 1.11 nM. In the test on C57BLKS/J-m-db mice, the “% drop in glucose” value came to 54%.

`CC[C@H](C)[C@H](NC(=O)[C@H](Cc1ccccc1)NC(=O)[C@H](CC(C)C)NC(=O)[C@H](CCCNC(=N)N)NC(=O)[C@@H](NC(=O)[C@H](C)NC(=O)[C@H](C)NC(=O)[C@H](CCC(=O)O)NC(=O)[C@H](CCC(=O)O)NC(=O)[C@H](CC(C)C)NC(=O)[C@H](CCC(N)=O)NC(=O)[C@H](CCCCN)NC(=O)[C@H](CO)NC(=O)[C@H](CC(C)C)NC(=O)[C@H](CC(=O)O)NC(=O)[C@H](CO)NC(=O)[C@@H](NC(=O)[C@H](Cc1ccccc1)NC(=O)[C@@H](NC(=O)CNC(=O)[C@H](CCC(=O)O)NC(=O)CNC(=O)[C@@H](N)Cc1c[nH]cn1)[C@@H](C)O)[C@@H](C)O)C(C)C)C(=O)N[C@@H](CCC(=O)O)C(=O)N[C@@H](Cc1ccccc1)C(=O)N[C@@H](CC(C)C)C(=O)N[C@@H](CCCCN)C(=O)N[C@@H](CC(N)=O)C(N)=O` [Compound 15]: a half-maximal response in test [1] (EC50) required 1.05 nM. Further, the “% drop in glucose” value in the test on C57BLKS/J-m-db mice was found to be 45%.

For the origin of these results see US7696161B2, “Exendin agonist compounds” (Amylin Pharmaceuticals, Inc., priority 1997, dated 2010).
